Measurements: US20060052435A1, “Selective dopamin d3 receptor agonists for the treatment of sexual dysfunction” (priority 2001, published 2006)
Like-named read-outs stand apart in the source and are kept apart here.

Tests used:
[1] = target: human dopamine D2 long receptor (Homo sapiens, UniProt P14416)
[2] = target: human recombinant D2short (hD2s) receptors (Homo sapiens, UniProt P14416); test: inhibition of binding of [3H]-spiperone; settings: n = 3-11
ferrets = test: 7-OH-DPAT-induced emesis in the ferret; format: in vivo; settings: for Antagonist potency ED100 versus 7-OH-DPAT-induced emesis: s.c., minimum dose completely inhibiting emesis in all animals, n = 3
[3] = ferret, in vivo, sc
telemetry rats = test: rat telemetry model of erection (intracavernosal pressure); format: in vivo; settings: for proerectile effect (words): male models of erection / telemetry rats, agonist alone; for agonist-induced erectile activity with concomitant L-741,626 and SB-277,011: L-741,626 2 mg/kg s.c. and SB-277,011 3 mg/kg s.c.
Protocol: Erectile responses were recorded by measuring intracavernosal pressure and/or clitoral/vaginal blood flow using surgically implanted telemetric device. The specific details of the surgical procedures, data acquisition and analysis can be found in detail in Bernabe J, Rampin O, Sachs B D, Giuliano F. Intracavernous pressure during erection in rats: an integrative approach based on telemetric recording. Am. J. Physiol.

anaesthetised dog [4] = test: haemodynamics in the anaesthetised dog; format: in vivo
From the text: Male beagles were anaesthetised with a mixture of chloralose and urethane, following pre-medication with piritramide. They were instrumented to measure arterial blood pressure, cardiac output, E.C.G., pudendal artery blood flow (PAF) and intra-cavernosal pressure (ICP). Other parameters such as heart rate and vascular resistance were derived from the primary signals. Following a period of equilibration, a series of control readings were taken and the effects of pelvic nerve stimulation at 4 and 8 Hz, on ICP and PAF were measured. Compounds were administered subcutaneously in the dorsal neck region via an implanted catheter, in the dose range of 0.3-3000 μg(base)/kg. Following each dose, parameters were measured at fixed intervals for 30 min.
Results were analysed as percent change from the final control values for each dog and mean values for three dogs were used.

New Zealand rabbits = test: male and female anaesthetised rabbit, pelvic nerve stimulation; format: in vivo
Protocol: 1.1.1 Male and Female Anaesthetised Rabbit Methodology
Male and female New Zealand rabbits (˜2.5 kg) were pre-medicated with a combination of Medetomidine (Domitor®) 0.5 ml/kg i.m., and Ketamine (Vetalar®) 0.25 ml/kg i.m. whilst maintaining oxygen intake via a face mask. The rabbits were tracheotomised using a Portex™ uncuffed endotracheal tube 3 ID., connected to ventilator and maintained at a ventilation rate of 30-40 breaths per minute, with an approximate tidal volume of 18-20 ml, and a maximum airway pressure of 10 cm H2O. Anaesthesia was then switched to Isoflurane and ventilation continued with O2 at 2 l/min. The right marginal ear vein was cannulated using a 23 G or 24 G catheter, and Lactated Ringer solution perfused at 0.5 ml/min. The rabbit was maintained at 3% Isoflurane during invasive surgery, dropping to 2% for maintenance anaesthesia. The left jugular vein was exposed, isolated and then cannulated with a PVC catheter (17 G) for the infusion of drugs and compounds.
The left groin area of the rabbit was shaved and a vertical incision was made approximately 5 cm in length along the thigh. The femoral vein and artery were exposed, isolated and then cannulated with a PVC catheter (17 G) for the infusion of drugs and compounds. Cannulation was repeated for the femoral artery, inserting the catheter to a depth of 10 cm to ensure that the catheter reached the abdominal aorta. This arterial catheter was linked to a Gould system to record blood pressure. Samples for blood gas analysis were also taken via the arterial catheter. Systolic and diastolic pressures were measured, and the mean arterial pressure calculated using the formula (diastolic×2+systolic)÷3. Heart rate was measured via the pulse oxymeter and Po-ne-mah data acquisition software system (Ponemah Physiology Platform, Gould Instrument Systems, Inc.).
A ventral midline incision was made into the abdominal cavity. The incision was about 5 cm in length just above the pubis. The fat and muscle was bluntly dissected away to reveal the hypogastric nerve which runs down the body cavity. It was essential to keep close to the side curve of the pubis wall in order to avoid damaging the femoral vein and artery which lie above the pubis. The sciatic and pelvic nerves lie deeper and were located after further dissection on the dorsal side of the rabbit. Once the sciatic nerve is identified, the pelvic nerve was easily located. The term pelvic nerve is loosely applied; anatomy books on the subject fail to identify the nerves in sufficient detail. However, stimulation of the nerve causes an increase in vaginal and clitoral blood flow in females and in intracavernosal pressure and cavernosal blood flow in males, and innervation of the pelvic region. […]

[5] = target: D3 receptors over D2 receptors (Homo sapiens, UniProt P35462); settings: GTPγS assay; cited from earlier work
[6] = unbound plasma and whole brain concentrations in anaesthetised ferrets; settings: s.c. dosing at the ED100 dose, n = 1
[7] = target: human recombinant D3 (hD3) receptors (Homo sapiens, UniProt P35462, G9S); test: inhibition of binding of [3H]-R(+)-7-OH-DPAT; settings: n = 3-11
D1 receptor = D1 receptor (Homo sapiens, UniProt P21728); settings: quoted abstract; cited from earlier work
D2 [8] = target: T1, D2 (Homo sapiens, UniProt P14416); settings: quoted abstract; cited from earlier work
[9] = test system: ovariectomized, partially hormone-repleted female rats; settings: 50 ug/kg P.O., 15-30 min after dosing; from 22+/−8%; cited from earlier work
male rhesus monkeys = settings: 20 and 50 ug/kg P.O., evaluated for 4 hr; cited from earlier work
dopamine D3 receptor = dopamine D3 receptor (Homo sapiens, UniProt P35462); test: cell-based
D2 [10] = target: T1, D2; settings: WO 93/23035; cited from earlier work
D3 = D3 (Homo sapiens, UniProt P35462); settings: WO 93/23035; cited from earlier work
anaesthetised dog [11] = test: emesis in the chloralose anaesthetised dog; settings: male, beagle, dog, in vivo, sc, 30 min
Protocol: Male beagles, 11-17 kg were used. Following an overnight fast, animals were anaesthetised with chloralose (80 mg kg^−1 i.v.), having first been injected with an anaesthetic dose of the short acting barbiturate, thiopentone (15 mg kg^−1 i.v.). Following tracheal intubation, which ensured a patent airway even during the expulsion phase of the emetic response, the left femoral vein and artery were cannulated for further administration of anaesthetic and for recording haemodynamic parameters, respectively. […] During the stabilisation period, respiratory rate was monitored to ensure that central respiratory centres were not deeply depressed, since the CNS efferent component of the emetic reflex is essentially conveyed via respiratory motor neurones. […] Animals were observed closely for 30 min post-dose and motor (e.g. swallowing, eye blinking, limb movements, changes in respiratory rate and depth, retching and vomiting) and haemodynamic changes noted and recorded. […] At the end of an experiment animals were sacrificed with an overdose of pentobarbitone.
Observations made on individual animals were used to determine the percentage of animals that retched when injected with a particular dose level of test compound. Percentage of animals retching was then used to construct a dose response curve and an ED50 value determined from the appropriate curve.

Chain of human dopamine D2 long receptor (P14416 whole entry): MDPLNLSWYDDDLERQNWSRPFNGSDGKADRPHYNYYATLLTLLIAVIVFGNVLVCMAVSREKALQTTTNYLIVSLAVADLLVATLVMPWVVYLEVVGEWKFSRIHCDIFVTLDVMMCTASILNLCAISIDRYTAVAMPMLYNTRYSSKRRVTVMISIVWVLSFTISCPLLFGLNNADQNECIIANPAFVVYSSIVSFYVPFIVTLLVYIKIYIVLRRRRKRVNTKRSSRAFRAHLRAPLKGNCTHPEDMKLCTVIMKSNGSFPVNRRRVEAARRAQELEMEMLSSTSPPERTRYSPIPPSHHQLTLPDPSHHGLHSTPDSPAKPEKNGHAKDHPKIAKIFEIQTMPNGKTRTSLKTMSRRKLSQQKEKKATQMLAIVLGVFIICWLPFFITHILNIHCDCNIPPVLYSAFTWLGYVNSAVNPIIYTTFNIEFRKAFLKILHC
Chain of human recombinant D2short (hD2s) receptors (P14416 1-414 isoform P14416-2): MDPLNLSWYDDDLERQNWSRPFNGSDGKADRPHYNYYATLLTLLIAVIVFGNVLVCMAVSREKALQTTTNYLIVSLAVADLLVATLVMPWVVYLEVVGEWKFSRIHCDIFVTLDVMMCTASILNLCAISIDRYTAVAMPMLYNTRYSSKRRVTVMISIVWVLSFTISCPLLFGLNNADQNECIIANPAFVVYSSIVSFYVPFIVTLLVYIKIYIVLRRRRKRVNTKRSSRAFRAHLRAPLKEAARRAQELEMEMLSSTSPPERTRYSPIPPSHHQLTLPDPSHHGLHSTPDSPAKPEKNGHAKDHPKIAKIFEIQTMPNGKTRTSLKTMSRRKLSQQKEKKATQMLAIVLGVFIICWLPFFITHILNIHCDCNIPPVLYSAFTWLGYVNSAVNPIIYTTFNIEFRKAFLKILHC
T1 sequence (P14416 whole entry): as the sequence (P14416 whole entry) above
Chain of dopamine D3 receptor (P35462 whole entry, species assumed): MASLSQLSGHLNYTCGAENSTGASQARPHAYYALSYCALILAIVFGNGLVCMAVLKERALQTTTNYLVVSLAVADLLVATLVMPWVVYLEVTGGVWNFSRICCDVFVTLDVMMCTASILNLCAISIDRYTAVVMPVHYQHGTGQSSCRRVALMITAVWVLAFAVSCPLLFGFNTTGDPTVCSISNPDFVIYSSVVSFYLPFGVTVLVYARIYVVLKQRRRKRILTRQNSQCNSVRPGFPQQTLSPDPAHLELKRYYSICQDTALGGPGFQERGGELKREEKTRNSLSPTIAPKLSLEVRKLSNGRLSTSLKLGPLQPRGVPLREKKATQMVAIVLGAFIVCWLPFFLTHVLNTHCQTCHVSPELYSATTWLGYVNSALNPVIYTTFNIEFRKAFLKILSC
Chain of D3 (P35462 whole entry, species assumed): as above
Chain of D3 receptors over D2 receptors (P35462 whole entry, species assumed): as above
Chain of human recombinant D3 (hD3) receptors (P35462 whole entry G9S): as the sequence (P35462 whole entry, species assumed) above, with G9S counted along it
Chain of D1 receptor (P21728 whole entry): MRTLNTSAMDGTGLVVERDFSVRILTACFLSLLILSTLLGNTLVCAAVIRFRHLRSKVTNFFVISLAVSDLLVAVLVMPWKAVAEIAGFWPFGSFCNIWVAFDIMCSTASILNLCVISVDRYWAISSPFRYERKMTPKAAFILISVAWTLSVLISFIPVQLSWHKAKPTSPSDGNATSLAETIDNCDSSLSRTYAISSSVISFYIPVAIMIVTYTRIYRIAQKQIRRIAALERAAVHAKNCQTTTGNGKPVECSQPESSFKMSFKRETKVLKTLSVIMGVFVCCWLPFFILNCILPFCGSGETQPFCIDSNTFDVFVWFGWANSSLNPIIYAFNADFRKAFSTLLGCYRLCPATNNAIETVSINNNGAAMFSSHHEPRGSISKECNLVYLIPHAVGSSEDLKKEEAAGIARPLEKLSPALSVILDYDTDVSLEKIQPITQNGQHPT

Structure (SMILES): CCCN1CCOC(c2cc(O)cc(O)c2)C1 (racemic) [Example 15a + 15b (racemate)]
- EC50 [1]: > 10000 nM

Structure (SMILES): CCCN1CCOC(c2ccc(F)c(O)c2)C1 (racemic) [Example 23a + 23b (racemate)]
- EC50 [1]: > 5000 nM

Structure (SMILES): CCCN1CCOC(c2cc(O)cc(O)c2)C1 (single isomer, unassigned) [Example 15a, R-5-(4-Propylmorpholin-2-yl)benzene-1,3-diol]
- EC50 [1]: 1750 nM

Structure (SMILES): CCCN1CCOC(c2ccc(F)c(O)c2)C1 (single isomer, unassigned) [Example 23a, R-(+)-2-Fluoro-5-(4-propylmorpholin-2-yl)phenol]
- EC50 [1]: > 5000 nM

Structure (SMILES): CCc1cc(Cl)c(OC)c(C(=O)NC[C@@H]2CCCN2CC)c1O [(S)-eticlopride]
- Ki ([2]; read-out: Affinity estimates (pKi ± s.e.m.) hD2s (converted)): 0.501 nM
- Antagonist potency ED100 versus 7-OH-DPAT-induced emesis (ferrets): 0.03 mg/kg
- Brain conc^n [3]: 377 ng/g

Structure (SMILES): CN1CCc2cccc3c2[C@H]1Cc1ccc(O)c(O)c1-3 [Apomorphine]
- proerectile effect (words) (telemetry rats): induce/enhance proerectile effects
- Geometric mean ED30 (fall in TPR) (anaesthetised dog [4]; dog, in vivo): 11.7 μg/kg s.c.
- cardiac output at the highest dose levels (anaesthetised dog [4]; dog, in vivo): approximately doubled
- effect on cardiac output and heart rate (anaesthetised dog [4]; s.c.): increases in cardiac output and heart rate
- effect on total vascular resistance (TVR; TPR) (anaesthetised dog [4]; s.c., doses up to 3000 μg/kg): reduction in total vascular resistance

Structure (SMILES): CCCN(CCC)C1CCc2ccc(O)cc2C1 (stereo not shown) [Example 7-OH-DPAT]
- agonist-induced erectile activity with concomitant L-741,626 and SB-277,011 (telemetry rats): abolishes all 7-OH-DPAT-induced erectile activity
- proerectile effect (words) (telemetry rats): induce/enhance proerectile effects
- emetic response, total retches and vomits (mean±s.e.m.) (ferrets; 0.1 mg/kg s.c., observed for 6 h, control animals): 78.0±9.0

Structure (SMILES): CCCN1CCOC(c2ccc(O)c(C(N)=O)c2)C1 (stereo not shown) [Example 35, 2-Hydroxy-5-(4-propylmorpholin-2-yl)benzamide]
- EC50 [1]: ~10500 nM

Structure (SMILES): CCCN1CCOC(c2ccc(O)c(N)c2)C1 (stereo not shown) [Example 37, 2-Amino-4-(4-propylmorpholin-2-yl)phenol]
- EC50 [1]: > 100000 nM

Structure (SMILES): CCCN1CCO[C@H]2c3cc(C(N)=O)ccc3CC[C@@H]21 [Example S32504]
- penile intracavernosal pressure and cavernosal blood flow in male rabbits (New Zealand rabbits): beneficially enhances
- vaginal and clitoral blood flow in female rabbits (New Zealand rabbits): beneficially enhances
- selectivity for D3 receptors over D2 receptors [5]: 251 fold

Structure (SMILES): CCCN(CCC)[C@@H]1CCc2cc(CS(=O)(=O)c3ccc(OC)cc3)ccc2C1 [GR218231]
- Affinity estimates (pKi ± s.e.m.) hD2s [2]: 6.8 ± 0.44
- animals in which emesis was blocked (ferrets; highest dose of 10 mg/kg): ⅔
- Antagonist potency ED100 versus 7-OH-DPAT-induced emesis (ferrets): >10 mg/kg
- Brain conc^n [6]: 1670 ng/g
- Plu/Ki hD2s (ratio of unbound plasma concentration to binding affinity) [6]: 1.3
- Plu/Ki hD3 (ratio of unbound plasma concentration to binding affinity) [6]: 95

Structure (SMILES): OC1(c2ccc(Cl)cc2)CCN(Cc2c[nH]c3ccccc23)CC1 [L-741,626]
- Affinity estimates (pKi ± s.e.m.) hD3 [7]: 6.6 ± 0.24
- Antagonist potency ED100 versus 7-OH-DPAT-induced emesis (ferrets): 3 mg/kg
- Brain conc^n [6]: 250 ng/g

Structure (SMILES): CN[C@@H]1Cc2cccc3[nH]c(=S)n(c23)C1 [PNU-142774E]
- Ki (D1 receptor): > 7000 nM
- Ki (D2 [8]): 7 nM
- lordosis/mounts ratio (L/M) [9]: 65+/−10%
- non-contact sexual behavior (erections, masturbation) (male rhesus monkeys): increase in sexual behavior

Structure (SMILES): CCCNC1CCc2nc(N)sc2C1.Cl.Cl (stereo not shown) [Pramipexole, 2-amino-4,5,6,7-tetrahydro-6-propylamino-benzthiazole-dihydrochloride]
- agonist-induced erectile activity with concomitant L-741,626 and SB-277,011 (telemetry rats): abolishes all pramipexole-induced erectile activity
- No of erectogenic events/15 min (telemetry rats; Pramipexole 0.1 μg/kg s.c.): 2.8 ± 0.2 n = 5 erectogenic events/15 min
- proerectile effect (words) (telemetry rats): induces a proerectile effect
- proerectile effect (words) (telemetry rats; listed as pramipexole): induce/enhance proerectile effects
- EC50 (dopamine D3 receptor): 0.62 nM

Structure (SMILES): CCCN1CCC[C@@H]2Cc3nc(N)ncc3C[C@H]21 [Quinelorane]
- EC50 [1]: 6.1 nM

Structure (SMILES): CCCN(CCC)CCc1cccc2c1CC(=O)N2 [Ropinirole]
- binding D2 (D2 [10]): 1380 nM
- binding D3 (D3): 69 nM
- EC50 [1]: 16.1 nM

Structure (SMILES): c1ccc(N2CCN(C[C@H]3CC[C@H](Nc4ncccn4)CC3)CC2)cc1 [trans-[4-[(4-Phenylpiperazin-1-yl)methyl]cyclohexyl]-pyrimidin-2-ylamine]
- erectogenic effect in the presence of selective D2 receptor antagonist L-741,626 (telemetry rats; L-741,626 2 mg/kg s.c.): abolished
- proerectile effect (words) (telemetry rats): produced erections
- dose at which emesis was observed (anaesthetised dog [11]): 0.1 mg/kg
- Geometric mean ED30 (fall in TPR) (anaesthetised dog [4]; dog, in vivo): 44.6 μg/kg s.c.
- cardiac output at the highest dose levels (anaesthetised dog [4]; dog, in vivo): approximately doubled
- effect on cardiac output and heart rate (anaesthetised dog [4]; dog, in vivo, sc): increases in cardiac output and heart rate
- EC50 [1]: 3.8 nM
